The source of these data is patent publication US8735624B2, “Polymorphic form of CHDMAPP, method of preparation thereof, and pharmaceutical composition comprising same” (Innate Pharma, priority 2008, dated 2014).

The nature of data set [1]: DVS hygroscopicity and moisture measurements. To be noted: result in words. It is filed as physicochemical. On the procedure: Moisture sorption isotherms of the crystalline phases were obtained by using a DVS-1 automated water sorption analyzer (Surface Measurements Systems, Alperton, Middlesex, United Kingdom). The reference material was an empty glass pan and the total gas flow was 200 sccm.min^−1 (Standard Cubic Centimeters per minute). Temperature of analysis was 20° C. For each measurement, precisely ca. 15 mg of the sample were weighed in a glass pan beforehand allowed for the tare, then placed in the analyzer.
As a first stage, dry nitrogen (0% R.H) was applied until constant weight of the sample in order to eliminate adsorbed or absorbed water (potential dehydration). Then, mass variations were recorded while R.H. was increased by steps of 10% R.H. The automated analyzer was allowed to start the following step as soon as the mass variation of the sample was less than 5.10^−4 mg.min^−1. The upper limit was adjusted below the deliquescence of the compound and never exceeded 90% R.H.
DVSWin (v 2.18) was used as control and data collection software whereas data processing was performed by using DVS Standard Analysis Suite (v 4.3).
Further parameters used in DVS procedures are as follows:
Protocole Dynamic Vapor Sorption/Appareil ‘Surface Measurements Systems)=
Automated Water Sorption Analyzer’/model: DVS−1
Analysis method: • step mode, • Temperature: 20° C. • step dm/dt<0.0005 (mg/min) • First stage R.H.=0% • Last Stage R.H.=90% • Minimum Stage: 20 min • Maximum Stage: 120 min • Total Gas Flow: 200 • Nitrogen: 200 Bars, H2O<3 ppm, O2<2 ppm, Réf. Nitrogen N50 B50*0 Software—data collection and data processing: • DVSWin v2.18 (control software), • DVS Standard Analysis Suite v4.3 (analysis software).]

The nature of data set [2]: solid phase stability on storage (XRPD). As to conditions: for crystalline structure after storage (XRPD): stored 3 months at 40° C., 75% RH. In kind it is physicochemical. As for the experimental part:
X-Ray Powder Diffraction measurements were carried out by using a SIEMENS D5005 diffractometer (Bruker analytical X-Ray Systems, D-76187 Karlsruhe, Germany) with a Bragg Brentano geometry, in theta-theta reflection mode. The instrument is equipped with a X-Ray tube (copper anticathode, 40 kV, 30 mA, Kα1 radiation: 1.5406 Å, Kα2 radiation: 1.5444 Å), a nickel filter and a scintillation detector. The diffraction patterns were collected by steps of 0.04° (2-theta) over the angular range 3°-30°, with a counting time of 4 s per step. No internal standard was used but a sample of quartz was analyzed as an external standard. The temperature of the sample was either the room temperature or accurately monitored when heating was required. DIFFRAC PLUS Edit Job software (v. 2.00) was used as control software and data processing was performed by using the Eva software (v. 9.0 and v. 10.0).

Data set [3] can be described thus: ICH stability testing (chemical purity by HPAEC). As to conditions: closed glass vials. It is filed as physicochemical. As for the experimental part: The chemical purity of phosphoesters (including the isomeric purity for geometric isomers) is determined using High Performance Anion-Exchange Chromatography (HPAEC) with suppressed conductivity detection. The HPAEC device comprises a DIONEX DX600 system (DIONEX Corporation, Sunnyvale Calif., USA) connected to computer loaded with DIONEX Chromeleon® chromatography software. A DIONEX CD25 conductivity detector is used with an anion self regenerating suppressor (ASRS®-ultra II-4 mm), which is set to either auto-suppression mode or external water mode. The HPAEC column used is a DIONEX Ion Pac® AS11 column (4×250 mm) equipped with an AG11 guard column (4×50 mm). In this procedure, phosphoesters are eluted (as anionic form) from the anion exchange column with a sodium or potassium hydroxide step gradient.
Stability tests of CHDMAPP-Na2,1H2O have been conducted according to ICH guideline Q7a, Section 19.11, under various storage conditions: 5° C., and 25° C./60% RH, both in closed glass vials. Purity has been assessed at regular time intervals (t0, 1, 3, 6 and 9 months) by HPAEC using a Dionex Ion Pac AS11, 4.0×250 mm column and a Dionex Ion Pac AG11, […] and by eluting with a gradient of water and NaOH solution.

Another data set is described as follows: TG/DSC thermal stability. To be noted: TGA-DSC. It is filed as physicochemical. As for the experimental part:
The stability range was assessed using Differential Scanning calorimetry (DSC), using a Netzsch STA 449C apparatus, as is described in detail hereinafter, and having a standard deviation of ±0.5° C. The person skilled in the art will appreciate that alternative readings of the melting point may result from the use of other types of DSC equipment and/or the use of other system under conditions different to those described below.
TG/DSC measurements were carried out by using a NETZSCH STA 449C Jupiter Thermogravimetric Analyzer (NETZSCH, D-95100 Selb, Germany) equipped with a low temperature furnace. The purge gas used was helium (gas flow=50 mL/min) and the reference material was an empty aluminum pan without cap. The samples were weighed in open aluminum pans, and then placed in the analyzer. The analyses were performed within various temperature ranges using a 2°.min^−1 heating rate. PROTEUS software was used for the acquisition and data processing (v. 4.7.0).
(In DSC, transitions show as peaks or steps in heat flow.)

The nature of data set [4]: stability of CHDMAPP in solution in water. It is filed as physicochemical. As to conditions: in solution in water at 5% in weight, 55° C. From the text: The crystalline phase thus provides a dramatic improvement of the stability and of the storage capabilities of the drug product.
The nature of data set [5]: pKa of the acidic functions. It is filed as physicochemical. An excerpt:
Each of these acidic functions can be coupled with a cation. Therefore, three stoichiometries of sodium salts of CHDMAPP may be prepared: A monosodium salt, a disodium salt and a trisodium salt.

The test system of the next data set is γδ T cells. As to conditions: activator of γδ T cells; times higher than BrHPP; cited from earlier work.

In the case of `C/C(=C\CCP(=O)(O)OP(=O)(O)O)CO` [CHDMAPP-Na2,1H2O, (2E)-1-hydroxy-2-methylpent-2-enyl-pyrophosphonate disodium monohydrate], the hygroscopicity result in data set [1] was “great non-hygroscopicity”. Besides, the “spontaneous phase transformation on storage” value in data set [2] (after more than 6 months, 25° C., 60% RH) was “does not observe any spontaneous phase transformation”. Further, the “crystalline structure after storage (XRPD)” value in data set [2] is reported as “has not been modified”. Further, the Purity amounted to 99.1% in data set [3] (storage 5° C., 1 month); 99.2% in data set [3] (storage 5° C., 3 months); 98.8% in data set [3] (storage 5° C., 6 months); 98.9% in data set [3] (storage 5° C., 9 months); 99.3% in data set [3] (storage 5° C., t 0); 99.2% in data set [3] (storage 25° C./60% R.H., 1 month). Moreover, the Purity in data set [3] (storage 25° C./60% R.H., 3 months) worked out at 99.1%; in data set [3] (storage 25° C./60% R.H., 6 months), 98.7%; in data set [3] (storage 25° C./60% R.H., 9 months) it was 98.9%; in data set [3] (storage 25° C./60% R.H., t 0) it was 99.3%. In addition, the “temperature up to which compound is stable (onset of endothermic dehydration peak)” value amounted to 115 °C in the data set “TG/DSC thermal stability” (listed as monohydrate disodium salt) and 115.7 °C in “TG/DSC thermal stability” (disodium monohydrate).
What is called half-life is the time needed for the level to fall by half in the phase considered. The compound `C/C(=C\CCP(=O)(O)OP(=O)(O)O)CO` [CHDMAPP, (2E)-1-hydroxy-2-methylpent-2-enyl-pyrophosphonate] registered a half-life in data set [4] of 62.4 h. For the same compound, the “pKa of the weak acidic function” value in data set [5] (one function, weak pKa) was 7.1. For the same compound, the “pKa of the two strong acidic functions” value in data set [5] (two functions, strong pKa) is given as 2.1. In addition, the “in vitro activity relative to BrHPP (Phosphostim)” value with γδ T cells is “approximately 100 times”.
`CC(=CCCP(=O)([O-])OP(=O)([O-])[O-])CO.[Na+].[Na+].[Na+]` [trisodium]: the hygroscopicity result in data set [1] was “very hygroscopic solid”.
Regarding `C/C(=C\CCP(=O)([O-])OP(=O)(O)O)CO.C/C(=C\CCP(=O)([O-])OP(=O)(O)O)CO.[Na+].[Na+]` [CHDMAPP-Na2,0H2O, anhydrous (2E)-1-hydroxy-2-methylpent-2-enyl-pyrophosphonate disodium], the hygroscopicity result in data set [1] was “hygroscopic”; in data set [1] (listed as anhydrous salt), “somewhat hygroscopic”. The “crystalline structure after storage (XRPD)” value in data set [2] is “completely modified”.
